The target of the assay is T1, human GPR84 receptor (Homo sapiens, UniProt Q9NQS5).
T1 construct: frozen aliquots prepared by acCELLerate; host or cells: CHO-K1
T1 sequence (Q9NQS5 whole entry): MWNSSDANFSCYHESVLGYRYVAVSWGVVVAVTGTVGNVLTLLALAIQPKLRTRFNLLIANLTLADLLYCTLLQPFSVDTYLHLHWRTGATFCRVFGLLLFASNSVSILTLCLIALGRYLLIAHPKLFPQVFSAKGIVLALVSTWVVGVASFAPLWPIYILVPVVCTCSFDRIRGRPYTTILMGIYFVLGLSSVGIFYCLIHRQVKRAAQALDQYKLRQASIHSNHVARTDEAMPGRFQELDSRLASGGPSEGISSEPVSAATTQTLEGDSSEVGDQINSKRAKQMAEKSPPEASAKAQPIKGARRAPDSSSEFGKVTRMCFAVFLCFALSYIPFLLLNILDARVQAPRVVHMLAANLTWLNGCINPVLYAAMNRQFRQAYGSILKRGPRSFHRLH
Briefly: cAMP HTRF assay for identification of cellular GPR84 antagonists. It is filed as cell-based. Particulars: CHO-K1 cells stably expressing human GPR84; Forskolin plus agonist 6-OAU; cAMP HTRF readout; average or median values. The method in brief: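 CHO-K1 cells stably expressing human GPR84, preincubated with compound 30 min at room temperature, then stimulated 30 min with 6-OAU (EC80) plus forskolin (EC90). cAMP measured by HTRF 665/620 nm ratio after 60 min lysis; 11 concentrations from 20 μM to 0.07 nM in duplicate, IC50 by 4-parameter fit.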
What is called IC50 is the concentration that gives 50% inhibition. For `Cc1c(C(=O)N(C)Cc2ccnn2C)oc2c1-c1nn(Cc3ccc(Cl)cc3)cc1CC2` [Example 84, 2-[(4-chlorophenyl)methyl]-N,8-dimethyl-N-[(1-methyl-1H-pyrazol-5-yl)methyl]-4,5-dihydro-2H-furo[2,3-g]indazole-7-carboxamide], the IC50 worked out at 16.4 µM.

For `Cc1c(C(=O)N(C)Cc2cnn(C)c2)oc2c1-c1nn(Cc3ccc(Cl)cc3)cc1CC2` [Example 76, 2-[(4-chlorophenyl)methyl]-N,8-dimethyl-N-[(1-methyl-1H-pyrazol-4-yl)methyl]-4,5-dihydro-2H-furo[2,3-g]indazole-7-carboxamide], the half-inhibitory concentration (IC50) was found to be 13 µM.

`Cc1c(C(=O)NCc2nccs2)oc2c1-c1nn(Cc3ccc(Cl)cc3)cc1CC2` [Example 38, 2-[(4-chlorophenyl)methyl]-8-methyl-N-[(1,3-thiazol-2-yl)methyl]-4,5-dihydro-2H-furo[2,3-g]indazole-7-carboxamide]: the IC50 worked out at 0.21 µM. In the case of `Cc1ccccc1Cn1cc2c(n1)-c1c(oc(C(=O)NC[C@@H]3CCCO3)c1C)CC2` [Example 4, 8-methyl-2-[(2-methylphenyl)methyl]-N-[(2S)-tetrahydrofuran-2-ylmethyl]-4,5-dihydro-2H-furo[2,3-g]indazole-7-carboxamide] it was 0.023 µM.

The values above are taken from US20240239804A1, “FUROINDAZOLE DERIVATIVES AS ANTAGONISTS OR INHIBITORS OF GPR84” (Bayer Aktiengesellschaft, priority 2021, published 2024).
